IC50 and PS lipase activity data for 1 compound are collected here from patent US20170313669A1, “LACTONE COMPOUNDS AND METHODS OF MAKING AND USING SAME” (THE SCRIPPS RESEARCH INSTITUTE, priority 2015, published 2017).

For test [1], the target named is T1, mouse ABHD16A (Mus musculus, UniProt Q9Z1Q2).
T1 construct: full-length cDNA of human ABHD16A (Open Biosystems Catalog # MHS6278-202758315) or murine ABHD16A (Open Biosystems Catalog # MMM1013-202760516); host or cells: HEK293T, transient, pCMV-SPORT6
T1 sequence (Q9Z1Q2 1-558): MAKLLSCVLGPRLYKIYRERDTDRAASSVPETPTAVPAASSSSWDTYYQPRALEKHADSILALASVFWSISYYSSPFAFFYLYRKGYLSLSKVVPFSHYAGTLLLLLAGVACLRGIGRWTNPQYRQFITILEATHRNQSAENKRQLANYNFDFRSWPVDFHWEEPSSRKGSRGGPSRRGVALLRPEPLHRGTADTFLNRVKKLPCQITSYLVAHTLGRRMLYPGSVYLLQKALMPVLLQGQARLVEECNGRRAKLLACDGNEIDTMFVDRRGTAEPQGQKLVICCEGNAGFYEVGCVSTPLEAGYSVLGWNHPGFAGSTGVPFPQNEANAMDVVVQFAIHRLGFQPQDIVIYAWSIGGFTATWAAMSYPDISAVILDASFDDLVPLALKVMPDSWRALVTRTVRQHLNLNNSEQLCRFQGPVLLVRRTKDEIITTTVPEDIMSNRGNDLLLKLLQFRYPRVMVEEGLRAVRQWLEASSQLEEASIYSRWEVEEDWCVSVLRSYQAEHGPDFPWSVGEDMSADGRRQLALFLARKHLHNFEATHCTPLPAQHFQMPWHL
The test can be described thus: PS substrate assay, mouse ABHD16A-transfected HEK293T proteome. The format is biochemical. The note with it: 30 min, 37° C.; C18:0/C18:2 PS 100 μM; read-out: IC50, PS-lipase activity.

In test [2] the target is T1, mouse ABHD16A. In words: Competitive gel-based ABPP, mouse ABHD16A-transfected HEK293T proteome. Conditions: 30 min, 37° C., then FP-rhodamine 2 μM. The format is biochemical.
Test [3] deals with PS lipase activity of mouse peritoneal macrophages (Mus musculus, UniProt Q9Z1Q2). In words: PS lipase activity of peritoneal macrophage membrane proteomes. The note with it: LPS-stimulated macrophages; 1 μM, 30 min, 37° C.

For orientation: IC50 means the concentration that gives 50% inhibition. As for `CCCCCCCCCCCCCC1OC(=O)/C1=C\CCCCC(N)=O` (stereo not drawn) [KC01, (Z)-6-(2-oxo-4-tridecyloxetan-3-ylidene)hexanamide], the values for the IC50 in test [1] and in test [2] were 520 ± 70 nM and approximately 500 nM, respectively. Moreover, in test [3], the PS lipase activity entry is listed as “blocked”.
